From US20120141491A1, “METHODS AND COMPOSITIONS FOR THE TREATMENT OF CANCERS AND PATHOGENIC INFECTIONS” (priority 2009, published 2012)
Entries after “also recorded” stand apart in the source; their conditions may differ. Read-outs that look alike come from different tables or passages of the source.

Experiments:
Assay type in all cases: cell-based
NeuT cells = tested on: NeuT cells
Procedure: FIGS. 3A-3E. Effects of Bcl-XL targeted small compounds on the autophagy response and cell survival in NeuT cells. The positions of C4 in Site 1 (FIG. 3A), and C9 in Site 2 (FIG. 3B) of Bcl-xl are shown by in silico molecular docking. NeuT (Her2-positive breast cancer cell line) cells expressing GFP-LC3 were incubated in enriched (Fed) medium in the presence of C4 (FIG. 3C) and C9 (FIG. 3D) Bcl-targeted compounds. GFP-LC3 is found on autophagic vacuole that appear as dots (arrows). In FIG. 3E, the survival of NeuT cells was quantified after 20h of treatment with 0.1-1000 μM of Site 1 (C2 and C4) and Site 2 (C7 and C9) compounds.
Cell survival is suppressed by Bcl2-targeted compounds: Next, we examined the effects of the Bcl-xl targeted compounds C2, C4, C7, and C9 on autophagy and cell death in Her2/Neu-positive NeuT breast carcinoma cells (FIGS. 3A-E).

[1] = tested on: Saos-2 osteosarcoma cells expressing GFP-LC3; experiment: Autophagy response by punctate localization of GFP-LC3 to autophagic vacuoles, fluorescence microscopy; conditions: for Stimulation of autophagy compared with amino acid and serum starved cells (FIG. 2G): 100 μM; for Stimulation of autophagy compared with amino acid and serum starved cells (FIG. 2G) / Enhancement of autophagy (GFP-LC3 at autophagic vacuoles): enriched (Fed) medium; for Activate Autophagy Response: Table 1; for Induction of autophagy: Table 2
Procedure: FIGS. 2A-2G. Activation of autophagy by Bcl-XL targeting compounds. The positions of C2 in Site 1 (FIG. 2A), C5 in Site 1 (FIG. 2B), and C8 in Site 2 (FIG. 2C) of Bcl-xl are shown by in silico molecular docking. Saos-2 osteosarcoma cells expressing GFP-LC3 were incubated in enriched (Fed) medium in the presence of C2 (FIG. 2D), C5 (FIG. 2E) and C8 (FIG. 2F) Bcl-targeted compounds. GFP-LC3 is found diffuse throughout the cytosol and nucleus when autophagy is suppressed. Ongoing autophagy can be visualized by the presence of GFP-LC3 at autophagic vacuoles (AVs) that appear as dots (arrows). […] In FIG. 2E, Saos-2 osteosarcoma cells expressing GFP-LC3 were incubated in enriched (Fed) medium in the absence and presence of Bcl-targeted compounds or in medium lacking amino acids and serum (Starved).
FIG. 4A-4F. Activation of autophagy by Bcl-targeted compounds. The localization of GFP-LC3 to autophagic vacuoles was enhanced by […] Bcl-targeted compounds in Saos-2 osteosarcoma cells. The autophagy response in fed Saos2 cells was measured in the absence and presence of anti-Bcl compounds by visualizing the punctate localization of GFP-LC3 (FIGS. 4A-4C) and RFP-GFP-LC3 (FIGS. 4D-4F) to autophagic vacuoles. In untreated fed cells, the GFP-LC3 is localized uniformly throughout the cell. […] Autophagy in cells expressing RFP-GFP-LC3 (FIGS. 4D-4F) was activated with compound B2-1. Structures containing RFP (red, FIG. 4D) and GFP (green, FIG. 4E) are autophagosomes (arrow), while RFP (red, FIG. 4D) structures are autolysosomes (arrowhead).
(§1) FIGS. 5A-5C. Characterization of proBeclin 1 compounds. Upon ranking 100 NCl compounds by in silico docking to Bcl-xl, the autophagy responses were evaluated in fed Saos-2 cells expressing GFP-LC3 (FIG. 5A). […] Cells were maintained in nutrient-rich medium in the absence and presence of Bcl-targeted compounds for 4 hr. The cells were then solubilized, Beclin 1 complex immunoprecipitated, and the Beclin 1 hound proteins identified by Western blotting (FIG. 5C). The IgG-LC is the immunoglobin light chain of the anti-Beclin 1 antibody that was used to immunoprecipitate the complex. The absence of Bcl-xl is indicative of an inhibition of Beclin 1 binding.
This was done in Saos-2 osteosarcoma cells stably expressing the autophagosome marker, GFP-LC3. In fed cells not undergoing autophagy GFP-LC3 is a soluble protein found throughout the cytosol. In amino acid and serum starved cells, autophagy is activated and GFP-LC3 becomes associated with autophagic vacuoles that can be visualize by fluorescence microscopy.
(§2) When autophagy is suppressed, GFP-LC3 distributes uniformly throughout the cellular cytoplasm (FIG. 4A). Autophagy response can be observed by visualizing the punctuate pattern of GFP-LC3 indicative of the presence of autophagic vacuoles. We can also use tandem-labeled LC3, RFP-GFP-LC3 to better assess the dynamics of the autophagy response by visualizing both autophagosomes and autolysosomes (FIG. 4D-4F). […] To further substantiate that the accumulation of GFP-LC3 structures is not due to a blockage of basal autophagy but the positive effects of the compounds on the autophagy response, the autophagy response is validated by quantitative protein turnover measures using radiolabeled amino acids (FIG. 5B). Finally, we determine whether the compound interferes with Beclin 1 binding to Bcl-xl (FIG. 5C) and Bcl-2 as we would suspect if the compound acts through the intended novel mechanism of action.

protein degradation = experiment: Protein degradation by pulse-chase methods using 14C-valine; conditions: for Rates of protein degradation (FIG. 5B): 14C-valine pulse-chase, compared to a control compound, n=6; for Stimulate Protein Degradation: Table 1; for Proteolysis, bar coding of FIG. 5A: black bar stimulated, striped bar inhibited
Procedure: as §1, §2

Beclin 1/Bcl binding = Beclin 1/Bcl binding by immunoprecipitation with anti-Beclin 1 antibodies and Western blotting; conditions: for Inhibit Beclin 1 Binding: Table 1; for Beclin 1 binding to Bcl-xl / Bcl proteins: nutrient-rich medium, 4 hr
Source text: FIGS. 5A-5C. Characterization of proBeclin 1 compounds. […] Cells were maintained in nutrient-rich medium in the absence and presence of Bcl-targeted compounds for 4 hr. The cells were then solubilized, Beclin 1 complex immunoprecipitated, and the Beclin 1 hound proteins identified by Western blotting (FIG. 5C). The IgG-LC is the immunoglobin light chain of the anti-Beclin 1 antibody that was used to immunoprecipitate the complex.
Autophagy response can be observed by visualizing the punctuate pattern of GFP-LC3 indicative of the presence of autophagic vacuoles. We can also use tandem-labeled LC3, RFP-GFP-LC3 to better assess the dynamics of the autophagy response by visualizing both autophagosomes and autolysosomes (FIG. 4D-4F). […] Finally, we determine whether the compound interferes with Beclin 1 binding to Bcl-xl (FIG. 5C) and Bcl-2 as we would suspect if the compound acts through the intended novel mechanism of action.

| Structure (SMILES) | Activate Autophagy Response [1] | Induction of autophagy [1] | Stimulate Protein Degradation (protein degradation) | Inhibit Beclin 1 Binding (Beclin 1/Bcl binding) | Enhancement of autophagy (GFP-LC3 at autophagic vacuoles) [1] | also measured |
| --- | --- | --- | --- | --- | --- | --- |
| CN1CCN(CCSC2Cc3cc(Cl)ccc3Sc3ccccc32)CC1 (stereo not drawn) [NSC635366] | Yes | Induces autophagy | No |  |  | Induction of cell death (NeuT cells): causes cell death; Stimulation of autophagy compared with amino acid and serum starved cells (FIG. 2G) ([1]; listed as C8): promote autophagy; also recorded: stimulated autophagy to levels seen in amino acid and serum starved cells; Enhancement of autophagy (GFP-LC3 at autophagic vacuoles) ([1]; listed as Bx19): promote the accumulation of autophagic vacuoles; Enhancement of autophagy (GFP-LC3 at autophagic vacuoles) ([1]; listed as C8): enhanced autophagy; Rates of protein degradation (FIG. 5B) (protein degradation): inhibit protein degradation |
| O=C(O)CCn1c(=O)[nH]c(=O)n(CCC(=O)O)c1=O [NSC11693] | Yes | NSC 11693 Induces autophagy; not tested for the induction of cell death |  |  |  |  |
| Clc1cc(Cl)c(C[N+]23CN4CN(CN(C4)C2)C3)cc1Cl.[Cl-] [NSC155877, 3,5,7-Triaza-1-axoniaadamantane, 1-(2,4,5-trichlorobenzyl)-, chloride] | Yes |  |  | No |  |  |
| Cl.NC(CSSCC(N)Cc1ccccc1)Cc1ccccc1 (stereo not drawn) [NSC656252] | Yes | Induces autophagy |  |  |  | Induction of cell death (NeuT cells; Table 2, cells not given): causes cell death |
| CN(C)CCNNC1CCCN(C)C1 (stereo not drawn) [NSC21689] | Yes |  | Yes | No | activate autophagy | Beclin 1 binding to Bcl-xl / Bcl proteins (Beclin 1/Bcl binding; listed as Bx-16): did not; also recorded: do not appear to affect Beclin 1 binding; also recorded: does not inhibit Beclin 1 binding as well as Bx-8; Rates of protein degradation (FIG. 5B) (protein degradation): activate |
| O=C1/C(=N\Nc2cc(Cl)ccc2O)C(S(=O)(=O)O)=Cc2cc(S(=O)(=O)O)cc(O)c21 [NSC100234, (3E)-3-[(5-chloro-2-hydroxyphenyl)hydrazinyleidene]-5-hydroxy-4-oxonapthalene-2,7-disulfonic acid] | Yes |  | Yes | Yes | stimulate autophagy | Beclin 1 binding to Bcl-xl / Bcl proteins (Beclin 1/Bcl binding): inhibiting Beclin 1 binding; Rates of protein degradation (FIG. 5B) (protein degradation): stimulate |
| O=C(c1ccc(Cl)cc1)C(C(c1ccc([N+](=O)[O-])cc1)N1CCCCC1)N1CCCCC1 (stereo not drawn) [NSC150193, 1-(4-chlorophenyl)-3-(4-nitrophenyl)-2,3-di(piperidin-1-yl)propan-1-one] | Yes | NSC 150193 Induces autophagy; not tested for the induction of cell death | Yes | Yes | stimulate autophagy | Beclin 1 binding to Bcl-xl / Bcl proteins (Beclin 1/Bcl binding): inhibiting Beclin 1 binding; Rates of protein degradation (FIG. 5B) (protein degradation; listed as B2-7): elevated; also recorded: stimulate; Proteolysis, bar coding of FIG. 5A (protein degradation): stimulated proteolysis |
| CN(C)CC(CN1c2ccccc2Sc2ccccc21)N(C)C (stereo not drawn) [NSC169468] | Yes | NSC 169468 Induces autophagy; not tested for the induction of cell death |  |  |  | Stimulation of autophagy compared with amino acid and serum starved cells (FIG. 2G) [1]: stimulated autophagy to levels seen in amino acid and serum starved cells |
| C1CC2NCCC3NCCC(N1)N32 (stereo not drawn) [NSC81462, Dodecahydro-1,4,7,9b-tetraazaphenalene] | Yes |  | Yes | Yes | stimulate autophagy | Beclin 1 binding to Bcl-xl / Bcl proteins (Beclin 1/Bcl binding; listed as Bx-8): inhibited Beclin 1 binding; also recorded: inhibiting Beclin 1 binding; Rates of protein degradation (FIG. 5B) (protein degradation; listed as Bx-8): elevated; also recorded: stimulate; Proteolysis, bar coding of FIG. 5A (protein degradation): stimulated proteolysis |
| CC(=O)C1=C(O)C2(C)c3c(O)c(C)c(O)c(C(C)=O)c3OC2CC1=O (stereo not drawn) [NSC280057] | Yes | Induces autophagy |  | No |  | Induction of cell death (NeuT cells; Table 2, cells not given): causes cell death; Stimulation of autophagy compared with amino acid and serum starved cells (FIG. 2G) ([1]; listed as C10): promote autophagy; also recorded: stimulated autophagy to levels seen in amino acid and serum starved cells |
| CC1CC(C)(C)NCCNC(C)CC(C)(C)NCCN1 (stereo not drawn) [NSC175445, 5,5,7,12,12,14-hexamethyl-1,4,8,11-tetrazacyclotetradecane] | Yes | NSC 175445 Induces autophagy; not tested for the induction of cell death |  | Yes | stimulate autophagy | Beclin 1 binding to Bcl-xl / Bcl proteins (Beclin 1/Bcl binding; listed as B2-11): inhibited Beclin 1 binding; also recorded: interfere with Beclin 1 binding; Proteolysis, bar coding of FIG. 5A (protein degradation): stimulated proteolysis |
| OC(CCl)CN1CC[N+]2(CC1)CC[N+]1(CCN(CC(O)CCl)CC1)CC2.[Cl-].[Cl-] (stereo not drawn) [NSC166100, 3,12-Bis(3-chloro-2-hydroxypropyl)-3,12-diaza-6,9-diazoniadispiro[5.2.5.2]hexadecane dichloride] | Yes | Induces |  | No |  | Stimulation of autophagy compared with amino acid and serum starved cells (FIG. 2G) [1]: promote autophagy |
